Test results published in ChEMBL document CHEMBL5705883, “Discovery of a selective inhibitor of oncogenic B-Raf kinase with potent antimelanoma activity” (Proc Natl Acad Sci U S A, 2008).
Activity calls are given as the source filed them. The rule behind the calls is not given here.

Columns and labels:
[1] = species: Mus musculus; details: SCID, dose 100.0 mg/kg, route po, time 15.0 day
[2] = system: COLO 205; experiment: cells; details: Homo sapiens, COLO 205, 72 h
[3] = system: A-375; experiment: cells; details: Homo sapiens, A-375, 72 h
[4] = system: WM 266-4; experiment: cells; details: Homo sapiens, WM 266-4, 72 h
[5] = system: COLO-829; experiment: cells; details: Homo sapiens, COLO-829, 72 h
[6] = cells; details: HT716, 72 h
[7] = system: SW-620; experiment: cells; details: Homo sapiens, SW-620, 72 h
[8] = system: NCI-H460; experiment: cells; details: Homo sapiens, NCI-H460, 72 h
[9] = system: Calu-6; experiment: cells; details: Homo sapiens, Calu-6, 72 h
[10] = system: HCT-116; experiment: cells; details: Homo sapiens, HCT-116, 72 h
[11] = system: SK-MEL-2; experiment: cells; details: Homo sapiens, SK-MEL-2, 72 h
[12] = system: SK-MEL3; experiment: cells; details: Homo sapiens, SK-MEL3, 72 h
[13] = system: LoVo; experiment: cells; details: Homo sapiens, 72 h
[14] = system: NCI-H1299; experiment: cells; details: Homo sapiens, NCI-H1299, 72 h
[15] = cells; details: Homo sapiens, COLO 205, 1 h
[16] = cells; details: Homo sapiens, A-375, 1 h
[17] = cells; details: Homo sapiens, COLO-829, 1 h
[18] = cells; details: Homo sapiens, SW-620, 1 h
[19] = in vivo; details: nude, mouse, plasma, po, 1000 mg/kg
[20] = animal or person; details: Mus musculus, COLO 205, po, 336 h, read-out: INH

GI50 [2]: 0.31 µM | GI50 [3]: 0.5 µM | GI50 [5]: 1.7 µM | GI50 [7]: 13 µM | GI50 [8]: 24 µM | GI50 [9]: 26 µM | GI50 [10]: 27 µM | GI50 [11]: 27 µM | GI50 [12]: 27 µM | GI50 [13]: 29 µM | GI50 [14]: 41 µM | IC50 [15]: 0.014 µM | IC50 [16]: 0.046 µM | IC50 [17]: 0.044 µM | IC50 [18]: > 40 µM | concentration at 336 h [19]: ≤ 600 µM
SMILES: CCCS(=O)(=O)Nc1ccc(F)c(C(=O)c2c[nH]c3ncc(Cl)cc23)c1F [PLX-4720]
inhibition [1]: Active | GI50 [4]: 1.5 µM | GI50 [6]: 10 µM | inhibition in vivo at 20 mg/kg [20]: 43%
